Our source for the Ki values is BindingDB's records for doi:10.7270/Q2Z31X1B (Nmmlsc, 2007).

The target in the experiment is T1, fMet-Leu-Phe receptor (Homo sapiens, UniProt P21462).
T1 sequence (P21462 whole entry): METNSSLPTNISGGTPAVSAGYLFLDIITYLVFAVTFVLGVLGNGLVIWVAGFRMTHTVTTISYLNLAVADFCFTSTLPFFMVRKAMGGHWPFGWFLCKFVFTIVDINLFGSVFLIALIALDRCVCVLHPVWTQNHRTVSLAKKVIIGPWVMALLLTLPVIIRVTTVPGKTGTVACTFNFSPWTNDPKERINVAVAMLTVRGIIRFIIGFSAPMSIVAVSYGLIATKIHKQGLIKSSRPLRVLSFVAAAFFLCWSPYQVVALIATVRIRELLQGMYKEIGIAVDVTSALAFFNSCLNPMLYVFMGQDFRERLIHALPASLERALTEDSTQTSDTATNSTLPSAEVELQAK
The experiment can be described thus: human FPR1 ligand displacement potency – cell-based, flow cytometry, Ki from IC50, dose response (AID 724). A general note: A flow cytometer gives signals particle by particle.
On to `CCCCCCN1C(=O)C(=O)C(C(=O)c2ccccc2)C1c1ccc(O)c(OC)c1` (centres undefined) [(4Z)-1-hexyl-5-(3-methoxy-4-oxidanyl-phenyl)-4-[oxidanyl(phenyl)methylidene]pyrrolidine-2,3-dione], for which the Ki (in general, a measure of affinity in units of concentration, obtained from inhibition or displacement) is 4.7 µM.
Under `COc1cc(C2C(C(C)=O)C(=O)C(=O)N2c2ccc(Br)cc2)ccc1O` (centres undefined) [1-(4-bromophenyl)-3-ethanoyl-2-(3-methoxy-4-oxidanyl-phenyl)-4-oxidanyl-2H-pyrrol-5-one] stands above 44.3 µM; under `O=C1C(=O)N(c2ccc(F)cc2)C(c2ccc(Br)cc2)C1C(=O)c1ccccc1` (centres undefined) [(4Z)-5-(4-bromophenyl)-1-(4-fluorophenyl)-4-[hydroxy(phenyl)methylene]pyrrolidine-2,3-quinone], above 44.3 µM.
Under `Cc1ccc(N2C(=O)C(=O)C(C(=O)c3ccccc3)C2c2cccc(F)c2)cc1Br` (centres undefined) [(4Z)-1-(3-bromanyl-4-methyl-phenyl)-5-(3-fluorophenyl)-4-[oxidanyl(phenyl)methylidene]pyrrolidine-2,3-dione] stands above 44.3 µM; under `COc1ccc(C2C(C(=O)c3cccs3)C(=O)C(=O)N2CCN2CCOCC2)c(OC)c1` (centres undefined) [2-(2,4-dimethoxyphenyl)-1-(2-morpholin-4-ylethyl)-4-oxidanyl-3-thiophen-2-ylcarbonyl-2H-pyrrol-5-one], 2.9 µM.
The compound `COc1ccc(OC)c(C2C(C(=O)c3ccccc3)C(=O)C(=O)N2c2ccc(C)c(Cl)c2)c1` (centres undefined) [(4E)-1-(3-chloranyl-4-methyl-phenyl)-5-(2,5-dimethoxyphenyl)-4-[oxidanyl(phenyl)methylidene]pyrrolidine-2,3-dione] returned a Ki of 16.8 µM.
As for `COc1ccc(C(=O)C2C(=O)C(=O)N(CCc3c[nH]c4ccccc34)C2c2ccc(C(C)C)cc2)cc1` (centres undefined), the figure is above 44.3 µM; as for `COc1ccc(OC)c(C2C(C(=O)c3ccc(C)cc3)C(=O)C(=O)N2CCC(=O)O)c1` (centres undefined) [3-[(3E)-2-(2,5-dimethoxyphenyl)-3-[(4-methylphenyl)-oxidanyl-methylidene]-4,5-bis(oxidanylidene)pyrrolidin-1-yl]propanoic acid], above 44.3 µM.
Under `O=C1C(=O)N(CCCn2ccnc2)C(c2cccnc2)C1C(=O)c1ccco1` (centres undefined) [3-(furan-2-carbonyl)-4-hydroxy-1-(3-imidazol-1-ylpropyl)-2-pyridin-3-yl-2H-pyrrol-5-one] stands above 44.3 µM; under `O=C1C(=O)N(CCc2ccccc2)C(c2ccc(Cl)cc2)C1C(=O)c1cccs1` (centres undefined) [2-(4-chlorophenyl)-4-hydroxy-1-(2-phenylethyl)-3-(thiophene-2-carbonyl)-2H-pyrrol-5-one], 6.9 µM.
As for `O=C1C(=O)N(CCCn2ccnc2)C(c2cccnc2)C1C(=O)c1cc2ccccc2o1` (centres undefined) [3-(1-benzofuran-2-carbonyl)-4-hydroxy-1-(3-imidazol-1-ylpropyl)-2-pyridin-3-yl-2H-pyrrol-5-one], the figure is above 44.3 µM; as for `Cc1ccc(C(=O)C2C(=O)C(=O)N(c3nnc(C)s3)C2c2ccc(C(C)C)cc2)cc1` (centres undefined) [(4E)-4-[(4-methylphenyl)-oxidanyl-methylidene]-1-(5-methyl-1,3,4-thiadiazol-2-yl)-5-(4-propan-2-ylphenyl)pyrrolidine-2,3-dione], above 44.3 µM.
For `COc1ccc(C2C(C(=O)c3ccc(C)cc3)C(=O)C(=O)N2Cc2cccnc2)c(OC)c1` (centres undefined) [(4E)-5-(2,4-dimethoxyphenyl)-4-[(4-methylphenyl)-oxidanyl-methylidene]-1-(pyridin-3-ylmethyl)pyrrolidine-2,3-dione], the Ki was determined as 39.1 µM.
As for `COc1ccc(C2C(C(=O)c3cc4ccccc4o3)C(=O)C(=O)N2CCN(C)C)cc1OC` (centres undefined) [3-(1-benzofuran-2-carbonyl)-2-(3,4-dimethoxyphenyl)-1-[2-(dimethylamino)ethyl]-4-hydroxy-2H-pyrrol-5-one], the figure is above 44.3 µM; as for `COCCCN1C(=O)C(=O)C(C(=O)c2ccccc2)C1c1ccc(C(C)C)cc1` (centres undefined) [(4E)-1-(3-methoxypropyl)-4-[oxidanyl(phenyl)methylidene]-5-(4-propan-2-ylphenyl)pyrrolidine-2,3-dione], 20.3 µM.
As for `O=C1C(=O)N(CCCN2CCOCC2)C(c2cccnc2)C1C(=O)c1cc2ccccc2o1` (centres undefined) [3-(1-benzofuran-2-carbonyl)-4-hydroxy-1-(3-morpholin-4-ylpropyl)-2-pyridin-3-yl-2H-pyrrol-5-one], the figure is above 44.3 µM.
Under `Cc1ccc(C(=O)C2C(=O)C(=O)N(Cc3cccnc3)C2c2ccc(Br)cc2)cc1` (centres undefined) [(4E)-5-(4-bromophenyl)-4-[(4-methylphenyl)-oxidanyl-methylidene]-1-(pyridin-3-ylmethyl)pyrrolidine-2,3-dione] stands above 44.3 µM; under `COCCN1C(=O)C(=O)C(C(=O)c2ccccc2)C1c1cc(OC)ccc1OC` (centres undefined) [(4E)-5-(2,5-dimethoxyphenyl)-1-(2-methoxyethyl)-4-[oxidanyl(phenyl)methylidene]pyrrolidine-2,3-dione], 1.8 µM.
In turn, `COCCCN1C(=O)C(=O)C(C(=O)c2ccccc2)C1c1ccc(O)c(OC)c1` (centres undefined) [(4E)-5-(3-methoxy-4-oxidanyl-phenyl)-1-(3-methoxypropyl)-4-[oxidanyl(phenyl)methylidene]pyrrolidine-2,3-dione] gave a Ki of 33 µM.
Under `COc1ccc(C2C(C(=O)c3ccccc3)C(=O)C(=O)N2c2cccc(Cl)c2)c(OC)c1` (centres undefined) [(4E)-1-(3-chlorophenyl)-5-(2,4-dimethoxyphenyl)-4-[hydroxy(phenyl)methylene]pyrrolidine-2,3-quinone] stands 31.1 µM.
As for `COc1ccc(C(=O)C2C(=O)C(=O)NC2c2ccc(OC)cc2OC)cc1` (centres undefined) [(4Z)-5-(2,4-dimethoxyphenyl)-4-[(4-methoxyphenyl)-oxidanyl-methylidene]pyrrolidine-2,3-dione], the inhibition constant (Ki) is above 44.3 µM.
As for `CC(C)c1ccc(C2C(C(=O)c3ccccc3)C(=O)C(=O)N2Cc2cccnc2)cc1` (centres undefined) [(4E)-4-[hydroxy(phenyl)methylene]-5-p-cumenyl-1-(3-pyridylmethyl)pyrrolidine-2,3-quinone], the figure is 33.2 µM; as for `N#Cc1c(N=C(CC(=O)c2ccccc2)C(=O)O)sc2c1CCC2` [(Z)-2-[(3-cyano-5,6-dihydro-4H-cyclopenta[b]thiophen-2-yl)amino]-4-keto-4-phenyl-but-2-enoic acid], above 44.3 µM.
`COc1ccc(C2C(C(=O)c3ccco3)C(=O)C(=O)N2CCN2CCOCC2)c(OC)c1` (centres undefined) [5-(2,4-dimethoxyphenyl)-4-(furan-2-carbonyl)-3-hydroxy-1-(2-morpholinoethyl)-1H-pyrrol-2(5H)-one] had a Ki of 6.4 µM. This lies in the single-digit micromolar range.
The compound `CC(=O)C1C(=O)C(=O)N(CCc2c(C)[nH]c3ccccc23)C1c1cccc(F)c1` (centres undefined) came in with a Ki of 11.2 µM. Compared with the last compound, the Ki is about 1.7-fold higher.
`O=C(O)CCCN1C(=O)C(=O)C(C(=O)c2ccccc2)C1/C=C/c1ccccc1` (centres undefined) [4-[(4E)-2,3-bis(oxidanylidene)-4-[oxidanyl(phenyl)methylidene]-5-[(E)-2-phenylethenyl]pyrrolidin-1-yl]butanoic acid]: the inhibition constant (Ki) was above 44.3 µM.
Under `COc1cc(C2C(C(=O)c3cc4ccccc4o3)C(=O)C(=O)N2CCN(C)C)ccc1O` (centres undefined) [3-(1-benzofuran-2-carbonyl)-1-[2-(dimethylamino)ethyl]-4-hydroxy-2-(4-hydroxy-3-methoxyphenyl)-2H-pyrrol-5-one] stands above 44.3 µM.
Under `COc1ccc(C2C(C(=O)c3cccs3)C(=O)C(=O)N2CCCn2ccnc2)cc1` (centres undefined) [1-(3-imidazol-1-ylpropyl)-2-(4-methoxyphenyl)-4-oxidanyl-3-thiophen-2-ylcarbonyl-2H-pyrrol-5-one] stands 4.7 µM; under `COc1ccc(C2C(C(=O)c3ccccc3)C(=O)C(=O)N2CCCn2ccnc2)c(OC)c1` (centres undefined) [(4E)-5-(2,4-dimethoxyphenyl)-1-(3-imidazol-1-ylpropyl)-4-[oxidanyl(phenyl)methylidene]pyrrolidine-2,3-dione], 3.4 µM.
Under `O=C1C(=O)N(CN2CCOCC2)C(c2ccc(Br)cc2)C1C(=O)c1ccccc1` (centres undefined) [(4E)-5-(4-bromophenyl)-1-(morpholin-4-ylmethyl)-4-[oxidanyl(phenyl)methylidene]pyrrolidine-2,3-dione] stands above 44.3 µM; under `CCCCCCOc1cccc(N2C(=O)C(=O)C(C(=O)c3ccccc3)C2c2cccc(F)c2)c1` (centres undefined) [(4Z)-5-(3-fluorophenyl)-1-(3-hexoxyphenyl)-4-[hydroxy(phenyl)methylene]pyrrolidine-2,3-quinone], above 44.3 µM; under `COc1ccc(OC)c(C2C(C(=O)c3ccccc3)C(=O)C(=O)N2c2cccnc2)c1` (centres undefined) [(4E)-5-(2,5-dimethoxyphenyl)-4-[hydroxy(phenyl)methylene]-1-(3-pyridyl)pyrrolidine-2,3-quinone], 6 µM.
Consider `O=C1NC(c2ccc(Br)cc2)C(C(=O)c2ccc(Cl)cc2)C1=O` (centres undefined) [(4E)-5-(4-bromophenyl)-4-[(4-chlorophenyl)-hydroxy-methylene]pyrrolidine-2,3-quinone], for which the Ki was above 44.3 µM.
As for `COc1ccc(C2C(C(=O)c3ccco3)C(=O)C(=O)N2CCCN2CCOCC2)cc1OC` (centres undefined) [2-(3,4-dimethoxyphenyl)-3-(furan-2-carbonyl)-4-hydroxy-1-(3-morpholin-4-ylpropyl)-2H-pyrrol-5-one], the figure is above 44.3 µM.
